Like-named read-outs stand apart in the source and are kept apart here.
What was measured:
human OX2R = biological target: T1, human OX2R (Homo sapiens, UniProt O43614); experiment: Agonist activity against OX2R: intracellular calcium (Fura-2AM, FDSS7000) in CHOOX2R cells; format: cell-based; settings: relative to orexin-A as full agonist (100%)
T1 construct: expressed in transfected cells; host or cells: CHO (Chinese hamster ovary) cells, line CHOOX2R, co-expressing NFAT-luciferase
T1 sequence (O43614 1-444): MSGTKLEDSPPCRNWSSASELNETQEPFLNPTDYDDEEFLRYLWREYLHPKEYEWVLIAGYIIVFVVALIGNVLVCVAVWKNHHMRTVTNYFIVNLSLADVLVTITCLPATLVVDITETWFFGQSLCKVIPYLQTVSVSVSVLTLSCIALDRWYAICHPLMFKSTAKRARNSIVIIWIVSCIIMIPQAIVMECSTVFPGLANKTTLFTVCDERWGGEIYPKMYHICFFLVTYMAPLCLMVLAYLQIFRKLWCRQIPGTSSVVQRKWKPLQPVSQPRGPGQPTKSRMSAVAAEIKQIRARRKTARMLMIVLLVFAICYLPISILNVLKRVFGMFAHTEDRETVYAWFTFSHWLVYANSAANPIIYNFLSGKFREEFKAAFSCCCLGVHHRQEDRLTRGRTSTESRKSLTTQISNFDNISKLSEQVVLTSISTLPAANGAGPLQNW
Procedure, shortened: (§1)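 Response is agonist activity at 0.1, 1.0 or 10 μM compound as a percentage of the orexin-A full-agonist maximum, taken from 340/380 nm Fura-2 ratio changes. Each cell line is CHO constitutively expressing human OX1R or OX2R with NFAT-luciferase, dye-loaded 60 min with 5 μM Fura-2AM; compound range 10^−7–10^−5 M, 1% DMSO.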

human OX1R = biological target: T2, human OX1R (Homo sapiens, UniProt O43613); experiment: Agonist activity against OX1R: intracellular calcium (Fura-2AM, FDSS7000) in CHOOX1R cells; format: cell-based; settings: relative to orexin-A as full agonist (100%); for Emax at 0.1 µM / Emax at 1 µM / Emax at 10 µM: read-out: Response (%) OX1R
T2 construct: expressed in transfected cells; host or cells: CHO (Chinese hamster ovary) cells, line CHOOX1R, co-expressing NFAT-luciferase
T2 sequence (O43613 1-425): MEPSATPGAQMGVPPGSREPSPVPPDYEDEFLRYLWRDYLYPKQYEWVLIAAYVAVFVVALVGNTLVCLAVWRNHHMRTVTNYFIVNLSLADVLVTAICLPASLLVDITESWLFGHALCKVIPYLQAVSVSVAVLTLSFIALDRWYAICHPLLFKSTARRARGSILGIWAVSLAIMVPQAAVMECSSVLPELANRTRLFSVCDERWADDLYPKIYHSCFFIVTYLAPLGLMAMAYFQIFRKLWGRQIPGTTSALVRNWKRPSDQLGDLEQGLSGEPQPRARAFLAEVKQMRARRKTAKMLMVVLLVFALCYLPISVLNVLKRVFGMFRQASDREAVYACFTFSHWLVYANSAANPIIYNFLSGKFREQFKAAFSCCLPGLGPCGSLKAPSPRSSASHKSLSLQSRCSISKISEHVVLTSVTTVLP
Procedure, shortened: as §1

COc1ccc(-c2cccc(C(=O)N(C)C)c2)cc1S(=O)(=O)Nc1cccc(NC(=S)Nc2ccccc2)c1 [Example 75, 4′-methoxy-N,N-dimethyl-3′-(N-(3-(3-phenylthioureido)phenyl)sulfamoyl)-[1,1′-biphenyl]-3-carboxamide]
Response (%) OX2R (human OX2R; 0.1 μM test compound): 61%
Response (%) OX2R (human OX2R; 1.0 μM test compound): 94%
Response (%) OX2R (human OX2R; 10 μM test compound): 95%
Emax at 0.1 µM (human OX1R; 0.1 μM test compound): < 5%
Emax at 1 µM (human OX1R; 1.0 μM test compound): < 5%
Emax at 10 µM (human OX1R; 10 μM test compound): 30%

COc1ccc(-c2cccc(C(=O)N(C)C)c2)cc1S(=O)(=O)Nc1cccc(NC(=S)Nc2cccc(C)c2)c1 [Example 76]
Response (%) OX2R (human OX2R; 0.1 μM test compound): 93%
Response (%) OX2R (human OX2R; 1.0 μM test compound): 90%
Response (%) OX2R (human OX2R; 10 μM test compound): 89%
Response (%) OX1R (human OX1R; 0.1 μM test compound): <5%
Response (%) OX1R (human OX1R; 1.0 μM test compound): 20%
Response (%) OX1R (human OX1R; 10 μM test compound): 55%

COc1ccc(-c2cccc(C(=O)N(C)C)c2)cc1S(=O)(=O)Nc1cccc(NC(=N)Nc2ccccc2)c1 [Example 77, 4′-methoxy-N,N-dimethyl-3′-(N-(3-(3-phenylguanidino)phenyl)sulfamoyl)-[1,1′-biphenyl]-3-carboxamide]
Response (%) OX2R (human OX2R; 0.1 μM test compound): <5%
Response (%) OX2R (human OX2R; 1.0 μM test compound): 51%
Response (%) OX2R (human OX2R; 10 μM test compound): 99%
Emax at 0.1 µM (human OX1R; 0.1 μM test compound): < 5%
Emax at 1 µM (human OX1R; 1.0 μM test compound): < 5%
Emax at 10 µM (human OX1R; 10 μM test compound): < 5%

COc1ccc(-c2cccc(C(=O)N(C)C)c2)cc1S(=O)(=O)Nc1cccc(NC(=N)Nc2cccc(C)c2)c1 [Example 78]
Response (%) OX2R (human OX2R; 0.1 μM test compound): 23%
Response (%) OX2R (human OX2R; 1.0 μM test compound): 89%
Response (%) OX2R (human OX2R; 10 μM test compound): 86%
Response (%) OX1R (human OX1R; 0.1 μM test compound): <5%
Response (%) OX1R (human OX1R; 1.0 μM test compound): <5%
Response (%) OX1R (human OX1R; 10 μM test compound): 14%

COc1ccc(-c2cccc(C(=O)N(C)C)c2)cc1S(=O)(=O)Nc1cccc(Nc2c(OC)c(=O)c2=O)c1 [Example 79, 4′-methoxy-3′-(N-(3-((2-methoxy-3,4-dioxocyclobut-1-en-1-yl)amino)phenyl)sulfamoyl)-N,N-dimethyl-[1,1′-biphenyl]-3-carboxamide]
Response (%) OX2R (human OX2R; 0.1 μM test compound): <5%
Response (%) OX2R (human OX2R; 1.0 μM test compound): <5%
Response (%) OX2R (human OX2R; 10 μM test compound): 51%
Emax at 0.1 µM (human OX1R; 0.1 μM test compound): < 5%
Emax at 1 µM (human OX1R; 1.0 μM test compound): < 5%
Emax at 10 µM (human OX1R; 10 μM test compound): < 5%

COc1ccc(-c2cccc(C(=O)N(C)C)c2)cc1S(=O)(=O)Nc1cccc(Nc2c(Nc3cccc(C)c3)c(=O)c2=O)c1 [Example 80, 3′-(N-(3-((3,4-dioxo-2-(m-tolylamino)cyclobut-1-en-1-yl)amino)phenyl)sulfamoyl)-4′-methoxy-N,N-dimethyl-[1,1′-biphenyl]-3-carboxamide]
Response (%) OX2R (human OX2R; 0.1 μM test compound): <5%
Response (%) OX2R (human OX2R; 1.0 μM test compound): <5%
Response (%) OX2R (human OX2R; 10 μM test compound): 23%
Emax at 0.1 µM (human OX1R; 0.1 μM test compound): < 5%
Emax at 1 µM (human OX1R; 1.0 μM test compound): < 5%
Emax at 10 µM (human OX1R; 10 μM test compound): < 5%

COc1ccc(Nc2c(Nc3cccc(NS(=O)(=O)c4cc(-c5cccc(C(=O)N(C)C)c5)ccc4OC)c3)c(=O)c2=O)cc1 [Example 81]
Response (%) OX2R (human OX2R; test compound 0.1 μM): <5%
Response (%) OX2R (human OX2R; test compound 1.0 μM): <5%
Response (%) OX2R (human OX2R; test compound 10 μM): 27%
Response (%) OX1R (human OX1R; test compound 0.1 μM): <5%
Response (%) OX1R (human OX1R; test compound 1.0 μM): <5%
Response (%) OX1R (human OX1R; test compound 10 μM): 7%

COc1cccc(Nc2c(Nc3cccc(NS(=O)(=O)c4cc(-c5cccc(C(=O)N(C)C)c5)ccc4OC)c3)c(=O)c2=O)c1 [Example 82]
Response (%) OX2R (human OX2R; test compound 0.1 μM): <5%
Response (%) OX2R (human OX2R; test compound 1.0 μM): <5%
Response (%) OX2R (human OX2R; test compound 10 μM): 16%
Response (%) OX1R (human OX1R; test compound 0.1 μM): <5%
Response (%) OX1R (human OX1R; test compound 1.0 μM): <5%
Response (%) OX1R (human OX1R; test compound 10 μM): 7%

COc1ccccc1Nc1c(Nc2cccc(NS(=O)(=O)c3cc(-c4cccc(C(=O)N(C)C)c4)ccc3OC)c2)c(=O)c1=O [Example 83]
Response (%) OX2R (human OX2R; test compound 0.1 μM): <5%
Response (%) OX2R (human OX2R; test compound 1.0 μM): <5%
Response (%) OX2R (human OX2R; test compound 10 μM): 11%
Response (%) OX1R (human OX1R; test compound 0.1 μM): <5%
Response (%) OX1R (human OX1R; test compound 1.0 μM): <5%
Response (%) OX1R (human OX1R; test compound 10 μM): 9%

COc1ccc(-c2cccc(C(=O)N(C)C)c2)cc1S(=O)(=O)Nc1cccc(Nc2c(Nc3ccc(C)cc3)c(=O)c2=O)c1 [Example 84]
Response (%) OX2R (human OX2R; test compound 0.1 μM): 6%
Response (%) OX2R (human OX2R; test compound 1.0 μM): 6%
Response (%) OX2R (human OX2R; test compound 10 μM): 21%
Response (%) OX1R (human OX1R; test compound 0.1 μM): <5%
Response (%) OX1R (human OX1R; test compound 1.0 μM): <5%
Response (%) OX1R (human OX1R; test compound 10 μM): 10%

COc1cccc(S(=O)(=O)Nc2cccc(NS(=O)(=O)c3cc(-c4cccc(C(=O)N(C)C)c4)ccc3OC)c2)c1 [Example 85, 4′-methoxy-3′-(N-(3-(3-methoxyphenylsulfonamido)phenyl)sulfamoyl)-N,N-dimethyl-[1,1′-biphenyl]-3-carboxamide]
Response (%) OX2R (human OX2R; test compound 0.1 μM): <5%
Response (%) OX2R (human OX2R; test compound 1.0 μM): <5%
Response (%) OX2R (human OX2R; test compound 10 μM): 12%
Emax at 0.1 µM (human OX1R; test compound 0.1 μM): < 5%
Emax at 1 µM (human OX1R; test compound 1.0 μM): < 5%
Emax at 10 µM (human OX1R; test compound 10 μM): < 5%

COc1ccc(-c2cccc(C(=O)N(C)C)c2)cc1S(=O)(=O)Nc1cccc(NS(=O)(=O)c2cccc(Br)c2)c1 [Example 86]
Response (%) OX2R (human OX2R; test compound 0.1 μM): <5%
Response (%) OX2R (human OX2R; test compound 1.0 μM): <5%
Response (%) OX2R (human OX2R; test compound 10 μM): 11%
Response (%) OX1R (human OX1R; test compound 0.1 μM): <5%
Response (%) OX1R (human OX1R; test compound 1.0 μM): <5%
Response (%) OX1R (human OX1R; test compound 10 μM): <5%

COc1ccc(-c2cccc(C(=O)N(C)C)c2)cc1S(=O)(=O)Nc1cccc(NS(=O)(=O)N(C)C)c1 [Example 87]
Response (%) OX2R (human OX2R; test compound 0.1 μM): <5%
Response (%) OX2R (human OX2R; test compound 1.0 μM): 10%
Response (%) OX2R (human OX2R; test compound 10 μM): 56%
Response (%) OX1R (human OX1R; test compound 0.1 μM): <5%
Response (%) OX1R (human OX1R; test compound 1.0 μM): <5%
Response (%) OX1R (human OX1R; test compound 10 μM): <5%

COc1ccc(-c2cccc(C(=O)N(C)C)c2)cc1S(=O)(=O)Nc1cccc(NS(=O)(=O)c2cccc(F)c2)c1 [Example 88]
Response (%) OX2R (human OX2R; test compound 0.1 μM): 15%
Response (%) OX2R (human OX2R; test compound 1.0 μM): 13%
Response (%) OX2R (human OX2R; test compound 10 μM): 13%
Response (%) OX1R (human OX1R; test compound 0.1 μM): 7%
Response (%) OX1R (human OX1R; test compound 1.0 μM): 7%
Response (%) OX1R (human OX1R; test compound 10 μM): 9%

COc1ccc(-c2cccc(C(=O)N(C)C)c2)cc1S(=O)(=O)Nc1cccc(NS(C)(=O)=O)c1 [Example 89]
Response (%) OX2R (human OX2R; test compound 0.1 μM): 7%
Response (%) OX2R (human OX2R; test compound 1.0 μM): 8%
Response (%) OX2R (human OX2R; test compound 10 μM): 31%
Response (%) OX1R (human OX1R; test compound 0.1 μM): <5%
Response (%) OX1R (human OX1R; test compound 1.0 μM): <5%
Response (%) OX1R (human OX1R; test compound 10 μM): <5%

COc1ccc(-c2cccc(C(=O)N(C)C)c2)cc1S(=O)(=O)Nc1cccc(NS(=O)(=O)Nc2cccc(C)c2)c1 [Example 90]
Response (%) OX2R (human OX2R; test compound 0.1 μM): <5%
Response (%) OX2R (human OX2R; test compound 1.0 μM): 56%
Response (%) OX2R (human OX2R; test compound 10 μM): 89%
Response (%) OX1R (human OX1R; test compound 0.1 μM): <5%
Response (%) OX1R (human OX1R; test compound 1.0 μM): <5%
Response (%) OX1R (human OX1R; test compound 10 μM): <5%

Source: patent US10351522B2, “Sulfonamide derivative and pharmaceutically acceptable acid addition salt thereof” (UNIVERSITY OF TSUKUBA, priority 2015, dated 2019)
